The record followed here is ChEMBL document CHEMBL3431459, “Roche carnitine palmitoyltransferase modulator screening data (supplementary data associated with the publication CHEMBL2216752)”.

pIC50: −log10 of the molar value. ≈ marks a conversion by molar mass, not a printed value.

The nature of data set [1]: SUPPLEMENTARY: Lyophilisation Solubility Assay (LYSA). The format is physicochemical. The conditions noted are these: read-out: Kinetic_solubility.
In data set [2] the target is T1, Carnitine O-palmitoyltransferase 1, liver isoform (Homo sapiens, UniProt P50416).
T1 sequence (P50416 whole entry): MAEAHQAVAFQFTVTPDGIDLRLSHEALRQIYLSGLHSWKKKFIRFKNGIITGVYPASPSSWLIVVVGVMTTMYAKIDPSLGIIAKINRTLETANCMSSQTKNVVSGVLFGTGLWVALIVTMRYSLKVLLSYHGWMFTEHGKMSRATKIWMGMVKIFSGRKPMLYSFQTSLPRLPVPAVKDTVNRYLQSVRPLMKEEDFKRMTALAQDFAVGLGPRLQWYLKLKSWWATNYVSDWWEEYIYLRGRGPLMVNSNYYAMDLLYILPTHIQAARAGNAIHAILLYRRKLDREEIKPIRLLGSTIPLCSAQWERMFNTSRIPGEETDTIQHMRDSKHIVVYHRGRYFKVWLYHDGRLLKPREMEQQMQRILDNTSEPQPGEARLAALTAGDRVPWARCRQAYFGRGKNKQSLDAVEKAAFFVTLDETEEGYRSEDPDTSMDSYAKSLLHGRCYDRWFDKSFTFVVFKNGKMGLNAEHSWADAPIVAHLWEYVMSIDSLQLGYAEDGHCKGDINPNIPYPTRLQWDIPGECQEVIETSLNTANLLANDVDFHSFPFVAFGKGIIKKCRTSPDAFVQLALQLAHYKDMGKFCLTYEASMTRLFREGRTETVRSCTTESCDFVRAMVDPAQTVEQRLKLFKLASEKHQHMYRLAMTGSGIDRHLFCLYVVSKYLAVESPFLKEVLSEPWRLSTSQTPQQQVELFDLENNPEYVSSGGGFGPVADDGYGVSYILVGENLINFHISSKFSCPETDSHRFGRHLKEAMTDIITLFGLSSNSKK
The data set is described as follows: (§1) SUPPLEMENTARY: Inhibition of Carnitine palmitoyltransferase 1, liver isoform.

For data set [3], the target named is T2, Carnitine O-palmitoyltransferase 1, liver isoform (Rattus norvegicus, UniProt P32198).
T2 sequence (P32198 whole entry): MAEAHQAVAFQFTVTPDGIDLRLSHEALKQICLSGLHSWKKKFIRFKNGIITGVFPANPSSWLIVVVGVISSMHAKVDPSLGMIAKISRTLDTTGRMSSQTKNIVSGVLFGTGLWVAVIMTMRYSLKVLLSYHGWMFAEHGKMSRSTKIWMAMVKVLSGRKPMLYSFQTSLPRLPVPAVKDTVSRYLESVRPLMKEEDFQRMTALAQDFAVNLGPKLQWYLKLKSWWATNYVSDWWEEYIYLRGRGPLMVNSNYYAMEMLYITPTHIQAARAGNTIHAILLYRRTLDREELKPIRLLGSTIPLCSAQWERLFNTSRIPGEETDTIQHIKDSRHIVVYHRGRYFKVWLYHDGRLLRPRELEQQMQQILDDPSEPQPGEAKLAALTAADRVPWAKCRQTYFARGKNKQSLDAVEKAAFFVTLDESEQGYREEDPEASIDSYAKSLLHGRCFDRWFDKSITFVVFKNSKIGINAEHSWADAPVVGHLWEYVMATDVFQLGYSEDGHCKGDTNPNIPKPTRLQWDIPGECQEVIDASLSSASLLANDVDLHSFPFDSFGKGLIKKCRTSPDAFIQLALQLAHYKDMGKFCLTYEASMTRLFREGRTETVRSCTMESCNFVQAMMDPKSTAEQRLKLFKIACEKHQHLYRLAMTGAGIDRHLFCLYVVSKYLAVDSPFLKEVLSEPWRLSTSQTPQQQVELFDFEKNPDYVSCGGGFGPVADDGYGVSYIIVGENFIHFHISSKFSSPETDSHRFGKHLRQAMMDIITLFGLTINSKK
Described as §1.

Data set [4] concerns the target T3, Carnitine O-palmitoyltransferase 2, mitochondrial (Rattus norvegicus, UniProt P18886).
T3 sequence (P18886 whole entry): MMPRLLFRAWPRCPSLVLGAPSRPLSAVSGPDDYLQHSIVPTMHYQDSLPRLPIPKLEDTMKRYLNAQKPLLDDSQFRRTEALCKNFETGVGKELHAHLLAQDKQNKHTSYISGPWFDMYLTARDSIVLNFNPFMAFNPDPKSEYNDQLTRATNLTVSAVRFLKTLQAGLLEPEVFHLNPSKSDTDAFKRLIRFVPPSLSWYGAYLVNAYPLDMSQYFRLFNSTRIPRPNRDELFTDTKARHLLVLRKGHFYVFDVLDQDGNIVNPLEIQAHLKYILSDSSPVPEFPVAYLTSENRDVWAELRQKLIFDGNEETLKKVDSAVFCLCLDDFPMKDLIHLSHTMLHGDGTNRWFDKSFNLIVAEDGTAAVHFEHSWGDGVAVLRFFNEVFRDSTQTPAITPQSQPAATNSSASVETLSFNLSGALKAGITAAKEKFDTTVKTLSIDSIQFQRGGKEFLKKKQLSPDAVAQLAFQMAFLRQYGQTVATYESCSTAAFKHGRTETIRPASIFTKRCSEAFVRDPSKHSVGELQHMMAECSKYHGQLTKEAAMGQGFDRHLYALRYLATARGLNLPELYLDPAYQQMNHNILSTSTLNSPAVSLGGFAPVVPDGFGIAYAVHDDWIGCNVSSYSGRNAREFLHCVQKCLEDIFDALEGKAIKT
The data set is described as follows: (§2) SUPPLEMENTARY: Inhibition of Carnitine palmitoyltransferase 2.

Data set [5] addresses T4, Carnitine O-palmitoyltransferase 2, mitochondrial (Homo sapiens, UniProt P23786).
T4 sequence (P23786 whole entry): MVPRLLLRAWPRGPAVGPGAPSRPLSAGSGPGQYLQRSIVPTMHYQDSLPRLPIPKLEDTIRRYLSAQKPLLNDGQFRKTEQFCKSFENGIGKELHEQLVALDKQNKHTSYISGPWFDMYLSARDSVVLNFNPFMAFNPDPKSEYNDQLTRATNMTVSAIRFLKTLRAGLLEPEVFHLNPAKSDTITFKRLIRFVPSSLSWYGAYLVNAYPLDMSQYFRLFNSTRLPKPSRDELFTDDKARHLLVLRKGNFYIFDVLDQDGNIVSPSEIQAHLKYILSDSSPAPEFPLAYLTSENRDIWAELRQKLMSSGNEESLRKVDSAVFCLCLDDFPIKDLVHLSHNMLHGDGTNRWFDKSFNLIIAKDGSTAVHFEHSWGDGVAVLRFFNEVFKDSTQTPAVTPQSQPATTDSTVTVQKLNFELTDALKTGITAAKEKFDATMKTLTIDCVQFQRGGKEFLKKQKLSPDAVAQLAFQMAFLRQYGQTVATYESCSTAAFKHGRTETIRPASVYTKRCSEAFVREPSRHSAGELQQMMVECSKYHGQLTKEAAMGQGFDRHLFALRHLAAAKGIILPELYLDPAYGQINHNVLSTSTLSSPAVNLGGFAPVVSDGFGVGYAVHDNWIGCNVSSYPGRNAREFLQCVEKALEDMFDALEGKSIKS
Described as §2.

Data set [6] addresses T5, Carnitine O-palmitoyltransferase 1, muscle isoform (Homo sapiens, UniProt Q92523).
T5 sequence (Q92523 whole entry): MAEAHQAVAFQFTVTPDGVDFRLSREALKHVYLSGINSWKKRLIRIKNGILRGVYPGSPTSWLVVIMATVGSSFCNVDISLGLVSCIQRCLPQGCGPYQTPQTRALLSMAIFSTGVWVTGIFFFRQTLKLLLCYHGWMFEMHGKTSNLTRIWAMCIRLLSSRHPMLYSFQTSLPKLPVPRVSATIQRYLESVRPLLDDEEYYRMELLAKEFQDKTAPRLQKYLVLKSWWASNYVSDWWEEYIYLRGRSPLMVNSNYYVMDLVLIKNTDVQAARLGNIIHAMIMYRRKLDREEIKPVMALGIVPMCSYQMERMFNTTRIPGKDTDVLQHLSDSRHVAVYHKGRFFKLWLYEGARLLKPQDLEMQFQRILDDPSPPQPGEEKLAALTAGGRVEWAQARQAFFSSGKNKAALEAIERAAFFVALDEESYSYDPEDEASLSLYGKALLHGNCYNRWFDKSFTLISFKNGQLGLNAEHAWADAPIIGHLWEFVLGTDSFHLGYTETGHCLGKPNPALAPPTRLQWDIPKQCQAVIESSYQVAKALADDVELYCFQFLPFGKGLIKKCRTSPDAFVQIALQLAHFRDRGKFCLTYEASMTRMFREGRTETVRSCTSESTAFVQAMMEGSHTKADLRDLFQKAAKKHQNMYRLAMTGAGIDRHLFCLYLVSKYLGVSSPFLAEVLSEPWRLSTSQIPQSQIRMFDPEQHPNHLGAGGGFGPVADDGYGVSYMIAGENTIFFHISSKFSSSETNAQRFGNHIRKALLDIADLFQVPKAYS
The data set is described as follows: SUPPLEMENTARY: Inhibition of Carnitine palmitoyltransferase 1, muscle isoform. More on the design: species or system Muscle tissue.

A short description of data set [7]: SUPPLEMENTARY: PAMPA permeability assay. In kind it is physicochemical. Particulars: read-out: Permeability.
The nature of data set [8]: SUPPLEMENTARY: Lipophilicity (log D) Determination by high-throughput shake-flask. The format is physicochemical. Particulars: octanol/water.

Take `COc1ccc(Cl)cc1S(=O)(=O)N1CCOc2ccc(C(=O)Nc3ccccc3)cc21`: the solubility kinetic in data set [1] is < 1 µg/mL. Moreover, the pIC50 in data set [2] was 7.39; in data set [3], 7.07; in data set [4], < 4.00; in data set [5], < 4.00; in data set [6], < 4.00. In addition, the Papp in data set [7] stood at 1.26 ×10⁻⁶ cm/s. Besides, the logD in data set [8] was > 3.

On to `COc1ccc(Cl)cc1CN1C(=O)OC(C)(C)c2ccc(C(=O)Nc3ccc(C(=O)O)cc3)cc21`, for which the solubility kinetic in data set [1] was determined as 3 µg/mL (≈ 6.06 µM). Also, the pIC50 in data set [2] is 7.05; in data set [3], 7.01; in data set [4], 4.55; in data set [5], 4.97; in data set [6] it was 5.20. Also, the Papp in data set [7] came out at 1.81 ×10⁻⁶ cm/s. Moreover, the logD in data set [8] stood at 2.38.

Regarding `COc1ccc(Cl)cc1CN1C(=O)OC(C)(C)c2ccc(C(=O)Nc3nc(CC(=O)O)cs3)cc21`, in data set [1], the solubility kinetic was 150 µg/mL (≈ 291 µM). In addition, the pIC50 is 7.23 in data set [2]; 7.22 in data set [3]; < 4.00 in data set [4]; < 4.00 in data set [5]; 6.00 in data set [6]. Besides, the Papp in data set [7] came to 1.93 ×10⁻⁶ cm/s. In data set [8], this compound yielded a pH-dependent lipophilicity (logD) of 1.17.

In the case of `CC(=O)Nc1cccc(-n2nnc([C@H]3CCCCN3C(=O)COc3ccccc3)n2)c1`, the solubility kinetic in data set [1] was determined as 26 µg/mL (≈ 61.8 µM). Further, the pIC50 is 6.96 in data set [2]; 7.15 in data set [3]; < 4.00 in data set [4]; 5.09 in data set [5]; < 4.00 in data set [6]. In data set [7], the Papp was 3.5 ×10⁻⁶ cm/s. The compound also yielded a logD in data set [8] of 3.

As to `CC(=O)NCc1cccc(-c2nc([C@H]3CCCCN3C(=O)COc3ccccc3)no2)c1`, the solubility kinetic in data set [1] was 127 µg/mL (≈ 292 µM). For the same compound, the negative-log IC50 (pIC50) is 7.00 in data set [2]; 6.51 in data set [3]; < 4.00 in data set [4]; 4.54 in data set [5]; < 4.00 in data set [6]. The Papp in data set [7] stood at 2.98 ×10⁻⁶ cm/s. In data set [8], this compound yielded a logD of 2.64.

For `CS(=O)(=O)NCc1cccc(-c2nc([C@H]3CCCCN3C(=O)COc3ccccc3)no2)c1`, the solubility kinetic in data set [1] was found to be 94 µg/mL (≈ 200 µM). Also, the pIC50 was 7.18 in data set [2]; 6.80 in data set [3]; < 4.00 in data set [4]; 4.64 in data set [5]; < 4.00 in data set [6]. Further, the Papp in data set [7] was 1.77 ×10⁻⁶ cm/s. Moreover, in data set [8], the pH-dependent lipophilicity (logD) is 2.44.

Turning to `COc1ccc(Cl)cc1S(=O)(=O)N1CCOc2c(F)cc(C(=O)Nc3ccc(CC(=O)O)cc3)cc21`, in data set [1], the solubility kinetic amounted to 565 µg/mL (≈ 1060 µM). Further, the negative-log IC50 (pIC50) in data set [2] is 6.82; in data set [3] it was 7.07; in data set [4], < 4.00; in data set [5], < 4.00; in data set [6], 6.12. For the same compound, in data set [7], the Papp worked out at 2.79 ×10⁻⁶ cm/s. The same compound displayed a logD in data set [8] of 0.47.

Take `COc1ccc(Cl)cc1S(=O)(=O)N1CCOc2c(F)cc(C(=O)Nc3nc(CC(=O)O)cs3)cc21`: the solubility kinetic in data set [1] was determined as 10 µg/mL (≈ 18.5 µM). The pIC50 in data set [2] was 7.62; in data set [3] it was 7.47; in data set [4], < 4.00; in data set [5], < 4.00; in data set [6], 6.13. In addition, the Papp in data set [7] turned out to be 2.43 ×10⁻⁶ cm/s. Further, the pH-dependent lipophilicity (logD) in data set [8] is 0.28.

Regarding `COc1ccc(Cl)cc1S(=O)(=O)N1CCSc2ccc(C(=O)Nc3ccc(CC(=O)O)cc3)cc21`, the solubility kinetic in data set [1] worked out at 232 µg/mL (≈ 435 µM). In addition, the negative-log IC50 (pIC50) in data set [2] was 6.92; in data set [3], 6.81; in data set [4], < 4.00; in data set [5] it was < 4.00; in data set [6], 6.10. In data set [7], the Papp came out at 5.1 ×10⁻⁶ cm/s. In data set [8], the logD is 0.61.

As for `COc1ccc(Cl)cc1S(=O)(=O)N1CCSc2ccc(C(=O)Nc3nc(CC(=O)O)cs3)cc21`, in data set [1], the solubility kinetic was 5 µg/mL (≈ 9.26 µM). Further, the pIC50 was 7.94 in data set [2]; 7.69 in data set [3]; < 4.00 in data set [4]; < 4.00 in data set [5]; 6.00 in data set [6]. Further, the Papp in data set [7] stood at 3.65 ×10⁻⁶ cm/s. The compound further showed a pH-dependent lipophilicity (logD) in data set [8] of 0.39.
